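How tested: cells in 96-well plates exposed to compound for 48 hours at five concentrations. The concentration for 50% growth inhibition is given as GI50. TGI: concentration producing complete growth inhibition.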
Tests used:
Assay in all cases: inhibition of tumour cell growth, NCI panel, 48 h
A549 NSCLC = system: A549 NSCLC
BT-549 breast = system: BT-549 breast
HOP-62 NSCLC = system: HOP-62 NSCLC
OVCAR-4 ovarian = system: OVCAR-4 ovarian
SK-OV-3 ovarian = system: SK-OV-3 ovarian
SNB-19 CNS = system: SNB-19 CNS
U251 CNS = system: U251 CNS
UACC-62 melanoma = system: UACC-62 melanoma
EKVX NSCLC = system: EKVX NSCLC
OVCAR-5 ovarian = system: OVCAR-5 ovarian

| Compound | TGI (A549 NSCLC) [µM] | TGI (BT-549 breast) [µM] | TGI (HOP-62 NSCLC) [µM] | TGI (OVCAR-4 ovarian) [µM] | TGI (SK-OV-3 ovarian) [µM] | TGI (SNB-19 CNS) [µM] | TGI (U251 CNS) [µM] | TGI (UACC-62 melanoma) [µM] | TGI (EKVX NSCLC) [µM] | TGI (OVCAR-5 ovarian) [µM] | GI50 (BT-549 breast) [µM] | GI50 (EKVX NSCLC) [µM] | GI50 (HOP-62 NSCLC) [µM] | GI50 (OVCAR-4 ovarian) [µM] | GI50 (OVCAR-5 ovarian) [µM] | GI50 (SK-OV-3 ovarian) [µM] | GI50 (SNB-19 CNS) [µM] | GI50 (UACC-62 melanoma) [µM] | GI50 (U251 CNS) [µM] | GI50 (A549 NSCLC) [µM] |
| --- | --- | --- | --- | --- | --- | --- | --- | --- | --- | --- | --- | --- | --- | --- | --- | --- | --- | --- | --- | --- |
| CCOC(=O)C1(C(=O)OCC)Nc2cccnc2N(C)N1 | > 100 | > 100 | > 100 | 34.3 | > 100 | > 100 | 41.4 | 35.2 |  |  |  |  |  |  |  |  |  |  |  |  |
| CNC(=O)OC(C)CN1c2ccccc2Sc2ccc(Cl)cc21 (centres undefined) | > 10 |  | > 10 | > 10 | > 10 | > 10 | > 10 | > 10 | > 10 | > 10 |  |  |  |  |  |  |  |  |  |  |
| C[C@]12CC[C@@H]3c4ccc(OP(=O)(O)O)cc4CC[C@H]3[C@@H]1CCC2=O | > 100 | > 100 | > 100 | > 100 | > 100 | > 100 | > 100 | > 100 | > 100 | > 100 |  |  |  |  |  |  |  |  |  |  |
| O=C(CCCCCCC(=O)Nc1ccc(N(CCCl)CCCl)cc1)NO |  | 29.2 | 13.5 | 32.4 | 15.9 | 29 |  | 5.09 | 37.9 | 30.6 | 5.83 | 11.5 | 2.98 | 3.37 | 2.56 | 3.76 | 4.12 | 1.09 |  |  |
| COc1cc(C2C(C(=O)O)=C(CO)Oc3cc4c(cc32)OCO4)cc(OC)c1O (centres undefined) | > 100 |  | > 100 | > 100 | > 100 | > 100 | > 100 | > 100 | > 100 |  |  |  |  |  |  |  |  |  |  |  |
| CCCc1[nH]c(SCCCCCCCCSc2nc(-c3ccc(F)cc3)c(CCC)[nH]2)nc1-c1ccc(F)cc1 | > 100 |  | > 100 | 95.4 |  | > 100 | > 100 | > 100 | 52.5 | > 100 |  |  |  |  |  |  |  |  |  |  |
| ONc1ncnc2nc[nH]c12 | > 100 |  | > 100 | > 100 |  | > 100 | > 100 | > 100 |  | > 100 |  |  |  |  |  |  |  |  |  |  |
| N=c1c2c(C(N)=O)cn(C3OC(CO)C(O)C3O)c2ncn1O (centres undefined) | 2.11 | 4.61 | 0.873 | 6.81 | > 36.3 | > 100 | 3.14 | 0.283 | 6.67 | 1.3 |  |  |  |  |  |  |  |  |  |  |
| Cc1cccc2nc3c(C(=O)NCCN(C)C)cccc3cc12 | 3.5 |  | 4.88 | 7.46 | 7.9 | 5.2 | 8.63 | 3.38 | 7.06 | 6.59 |  |  |  |  |  |  |  |  |  |  |
| O=S(=O)(O)c1ccc2cccc(N=Nc3c(O)ccc4ccccc34)c2c1 | > 100 | > 100 | > 100 | > 100 | > 100 | > 100 | > 100 | > 100 | > 100 | > 100 |  |  |  |  |  |  |  |  |  |  |
| CCOC(=O)c1nc2ccc(Cl)cc2c2c1Cc1ccccc1-2 | > 100 |  | > 100 | > 100 |  | > 100 | > 100 | > 100 | > 100 | > 100 |  |  |  |  |  |  |  |  |  |  |
| CN(C)CC(=O)Nc1ccc(Cn2nnc3c2C(=O)c2nnn(Cc4ccc(NC(=O)CN(C)C)cc4)c2C3=O)cc1 |  |  |  | 0.179 | 0.222 |  | 0.361 | 0.432 |  | 0.578 |  |  |  | 0.0473 | 0.234 | 0.0949 |  | 0.201 | 0.183 |  |
| CC1SC(c2ccccc2)N(CCc2cccs2)C1=O (centres undefined) | 15.1 | 12.9 | 25.9 | 13 | 20.9 | 19.9 | 14.5 | 18.8 | 12.7 | 27 | 3.35 | 2.77 | 11 | 2.45 | 10.3 | 7.64 | 5.06 | 3.42 | 3.95 | 4.16 |
| CCOC(=O)N(Cc1cccs1)c1cc(OC)c(OC)c(OC)c1 | > 100 | > 100 | > 100 | > 100 |  | > 100 | > 100 | > 100 | > 100 | > 100 |  |  |  |  |  |  |  |  |  |  |
| COc1ccc(/C(=C2/O[C@@H]([C@H]3COC(C)(C)O3)[C@H]3OC(C)(C)O[C@@H]23)c2cc(OC)c(OC)c(OC)c2)cc1O | > 100 |  | 34.7 | > 100 | 91.7 | > 100 | 43.1 | 57.6 | > 100 | > 100 |  | 37.4 | 10.9 | 37.5 | 59.6 | 12.6 | 5.33 | 22.9 | 5 | 22.7 |
| CCS(=O)(=O)Nc1ccc(Nc2c3ccccc3nc3ccccc23)c(OC)c1 | 1.7 |  | 1.21 | 16.1 | 5.89 | 6.41 | 2.43 | 4.02 |  | 19.4 |  |  |  |  |  |  |  |  |  |  |
| Cc1nc(N)nc(N)c1-c1ccc(Cl)c(Cl)c1 | > 100 | > 100 | > 100 | > 100 | > 100 | > 100 | > 100 | > 51.1 | > 100 | > 100 |  |  |  |  |  |  |  |  |  |  |
| CCN(CC)CC(C)Nc1ccc([N+](=O)[O-])c2sc3ccccc3c(=O)c12 (centres undefined) | 5.04 | 21.4 | 12.3 | > 100 | 13.2 | 32.7 | 10.7 | 2.52 | 23.4 | > 100 | 5.03 | 2.79 | 2.28 | 3.48 | 3.63 | 1.87 | 2.07 | 1.09 | 1.46 | 0.938 |
| CCSCCC(N)C(=O)O (centres undefined) | > 100 | > 100 | > 100 | > 100 | > 100 | > 100 | > 100 | > 100 | > 100 | > 100 |  |  |  |  |  |  |  |  |  |  |
| CN1CC[C@@]2(c3cccc(O)c3)CC(=O)/C(=C/c3ccccc3)[C@H]1C2 | 36.9 | 26.7 | 58.7 | 22.2 |  | 19.5 | 11.1 |  | 28.7 | 32.2 |  |  |  |  |  |  |  |  |  |  |
| Cn1c(=S)[nH]c2sc3c(c2c1=O)CCSC3 | > 100 | > 100 | 66.3 | > 100 | > 100 | > 100 | > 100 | > 100 | 85.4 | > 100 |  |  |  |  |  |  |  |  |  |  |
| COc1ccc2nc(-c3ccc(-c4noc(-c5cc(OC)c(OC)c(OC)c5)n4)cc3)[nH]c2c1 | 20.3 |  | 16.8 | 4.79 | 64.8 | 36.8 | 4.88 | 33.4 | 84.9 | 53.8 |  | 26.2 | 4.44 | 1.88 | 16.7 | 25.3 | 12.7 | 14 | 1.68 | 5.65 |

Source: PubChem BioAssay (NCI)
